Earlier results on 1 substance are cited in US7255813B2, “NADH/NADPH-containing compound” (Nutropia Ernahrungsmedizinische Forschungs GmbH, priority 2002, dated 2007).

For this series the following is noted: versus synthetic tocopherols.

For the substance tocotrienol, the “antioxidative potential, times higher than that of synthetic tocopherols” value is reported as 50 to 1000 times.
